Like-named read-outs stand apart in the source and are kept apart here.
Experiments:
[1] = target: T1, human kappa receptor (Homo sapiens, UniProt P41145); assay: Opioid receptor binding assay, κ, [3H]U69593, HEK 293 cell membranes
T1 construct: expressed in transfected cells
Procedure: (§1) Receptor binding assay: Cell membrane preparations were obtained from HEK 293-stable transfectants expressing either the murine δ or μ or the human κ receptor. Opioid receptor binding assays were conducted in duplicate on membrane preparations that had been resuspended in 50 mM Tris-HCl, pH 7.5, utilizing [^3H]DPDPE, [^3H]DAMGO and [^3H]U69593 as radiologand for δ, μ, and κ respectively and 10 μM cyclazocine to define non-specific binding. Following a 1 hour incubation on ice, binding assays were terminated by filtration through Whatman GF/B filters. Filters were soaked in Ecoscint liquid scintillation solution (National Diagnostics, Manville, N.J.) and filter-bound radioactivity was measured using a Packard Tri-Carb 2100 TR liquid scintillation analyzer. Receptor binding data was analyzed by non-linear regression of saturation and competition curves using Prisim 3.0 software (GraphPad Software, San Diego, Calif.). Protein concentrations were determined with the Bio-Rad protein using bovine serum albumin as the standard.

[2] = target: T2, δ-receptor (Mus musculus, UniProt P32300); assay: Function at δ receptor (receptor down regulation assay, HEK 293 cells expressing FLAG-tagged δ-receptor); format: cell-based; design: FLAG; expressed in transfected cells; host or cells: HEK 293 (G418 selection); settings: for Function at δ: compounds of Formula I
Procedure: Receptor down regulation assays: HEK 293 cells expressing the FLAG-tagged δ-receptor were grown to near confluence in 100 mm dishes in DMEM media supplemented with 10% fetal calf serum and 0.25 mg/ml G418. Media was replaced with serum-free media prior to overnight incubation with 10 μM or 20 μM of DOP or control compound. Media was aspirated and cell washed twice with cold PBS. Cell homogenates were collected and further washed trice with 50 mM TRIS-HCl, pH 7.5. Protein concentration was measured using Bio-Rad Bradford reagent and equal amount of protein (50 μg) was used for binding assay. Binding assays were performed using [^3H]diprenorphine as the radioactive ligand. Binding assays were conducted as described above.

[3] = target: T3, delta receptor (Mus musculus, UniProt P32300); assay: Opioid receptor binding assay, δ, [3H]DPDPE, HEK 293 cell membranes; design: species or system rat; settings: for Selectivity κ/δ / Selectivity μ/δ: ratio of IC50 values; for IC50: compounds of Formula II, Table III
T3 construct: expressed in transfected cells
Procedure: as §1

[4] = target: T4, mu receptor (Mus musculus, UniProt P42866); assay: Opioid receptor binding assay, μ, [3H]DAMGO, HEK 293 cell membranes; design: species or system rat; settings: compounds of Formula II, Table III
T4 construct: expressed in transfected cells
Procedure: as §1, with “Opioid” for “Receptor binding assay: Cell membrane preparations were obtained from HEK 293-stable transfectants expressing either the murine δ or μ or the human κ receptor. Opioid”

[5] = target: T5, mu opioid receptor (Mus musculus, UniProt P42866); assay: Function at the mu opioid receptor; settings: Table III
T5 construct: expressed in transfected cells

[6] = target: T6, kappa opioid receptor (Homo sapiens, UniProt P41145); assay: Function at the kappa opioid receptor; settings: Table III
T6 construct: expressed in transfected cells

[7] = target: T2, δ-receptor; settings: literature values for comparison compounds; cited from earlier work
[8] = inhibition of [3H]U69593, HEK 293 cell membrane, compounds of Formula I, read-out: IC50 (nM) κ
[9] = compounds of Formula II, Table III, read-out: IC50 κ

T2 sequence (P32300 whole entry): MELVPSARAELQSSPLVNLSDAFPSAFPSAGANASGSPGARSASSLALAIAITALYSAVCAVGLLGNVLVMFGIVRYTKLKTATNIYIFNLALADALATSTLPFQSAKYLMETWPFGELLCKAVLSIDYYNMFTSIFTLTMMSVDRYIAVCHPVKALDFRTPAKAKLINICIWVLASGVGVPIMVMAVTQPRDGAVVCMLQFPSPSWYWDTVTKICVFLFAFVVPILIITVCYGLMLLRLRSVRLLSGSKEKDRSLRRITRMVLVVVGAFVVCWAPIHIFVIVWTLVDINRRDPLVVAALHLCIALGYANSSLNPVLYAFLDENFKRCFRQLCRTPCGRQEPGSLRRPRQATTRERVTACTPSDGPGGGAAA
T3 sequence (P32300 whole entry): as above
T1 sequence (P41145 whole entry): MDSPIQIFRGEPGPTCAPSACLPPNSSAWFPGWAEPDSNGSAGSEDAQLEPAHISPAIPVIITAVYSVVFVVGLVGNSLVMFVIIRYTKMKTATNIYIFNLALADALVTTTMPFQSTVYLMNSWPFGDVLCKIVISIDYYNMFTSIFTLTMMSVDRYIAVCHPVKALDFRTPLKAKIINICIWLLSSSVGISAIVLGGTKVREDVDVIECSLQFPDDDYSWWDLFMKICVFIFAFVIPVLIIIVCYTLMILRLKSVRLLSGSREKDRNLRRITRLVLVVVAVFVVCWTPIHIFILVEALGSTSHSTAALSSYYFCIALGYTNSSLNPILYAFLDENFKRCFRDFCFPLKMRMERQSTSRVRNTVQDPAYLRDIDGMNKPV
T4 sequence (P42866 whole entry): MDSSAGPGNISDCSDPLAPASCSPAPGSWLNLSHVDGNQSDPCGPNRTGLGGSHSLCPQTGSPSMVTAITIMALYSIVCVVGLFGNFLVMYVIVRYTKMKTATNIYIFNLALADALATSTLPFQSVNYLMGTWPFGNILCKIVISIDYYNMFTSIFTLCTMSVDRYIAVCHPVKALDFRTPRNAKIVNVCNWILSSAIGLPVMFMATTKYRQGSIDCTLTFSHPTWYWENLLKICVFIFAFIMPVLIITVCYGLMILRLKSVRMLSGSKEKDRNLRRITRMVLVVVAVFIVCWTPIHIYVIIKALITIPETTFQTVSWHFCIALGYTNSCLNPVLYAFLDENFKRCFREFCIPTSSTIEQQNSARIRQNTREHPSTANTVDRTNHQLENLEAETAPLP
T6 sequence (P41145 whole entry): as the sequence (P41145 whole entry) above
T5 sequence (P42866 whole entry): as the sequence (P42866 whole entry) above

| IC50 [1, 8] [nM] | Function at δ [2] | IC50 [4] [nM] | IC50 [1, 9] [nM] | IC50 [3] [nM] | Structure (SMILES) | Selectivity κ/δ [3] | Selectivity μ/δ [3] | further results |
| --- | --- | --- | --- | --- | --- | --- | --- | --- |
| 341 ± 20 | Agonist |  |  |  | CN(C)Cc1nc(-c2cccc(C(C)(C)C)c2)n(-c2cccc(O)c2)n1 [DOP106, 3-[5-(3-tert-Butyl-phenyl)-3-dimethylaminomethyl-[1,2,4,]triazole-1-yl]-phenol] | 7 | 50 |  |
| 3850 ± 311 | Agonist |  |  |  | CN(C)Cc1nc(-c2ccc(C(C)(C)C)cc2)n(-c2cccc(O)c2)n1 [DOP108, 3-[5-(4-tert-Butyl-phenyl)-3-dimethylaminomethyl-[1,2,4,]triazole-1-yl]-phenol] |  |  |  |

Continued, molecule first:

| Structure (SMILES) | IC50 [1, 8] [nM] | Function at δ [2] | IC50 [4] [nM] | IC50 [1, 9] [nM] | IC50 [3] [nM] | Selectivity κ/δ [3] | Selectivity μ/δ [3] | further results |
| --- | --- | --- | --- | --- | --- | --- | --- | --- |
| Cc1ccc(-c2nc(CN(C)C)nn2-c2cccc(O)c2)c(C)c1 [DOP110] | 351 ± 95 | Agonist |  |  |  | 1.3 | 8.9 |  |
| CN(C)c1nnc(-c2cccc(O)c2)n1-c1ccc(C(C)(C)C)cc1 [DST8S] |  |  | 991 | 2130 | 2780 |  |  |  |
| CN(C)c1nnc(-c2cccc(O)c2)n1-c1cccc(C(C)(C)C)c1 [DST10S] |  |  | 118 | 23 | 114 |  |  | Function at the mu opioid receptor [5]: moderate to strong antagonist; Function at the delta opioid receptor ([2]; compound of Formula II, Table III): moderate to strong antagonist; Function at the kappa opioid receptor [6]: particularly strong agonist |
| C=CCN1C[C@H](C)N([C@H](c2ccc(C(=O)N(CC)CC)cc2)c2cccc(OC)c2)C[C@H]1C [SNC80] |  |  |  |  |  |  |  | Function at δ [7]: Agonist |
